{
  "source": "patent US20030022812A1",
  "about": "“Treating pain by targeting hyperpolarization-activated, cyclic nucleotide-gated channels” (priority 2001, published 2003)",
  "key": {"[1]": {"system": "rat mild thermal injury model", "assay": "Spontaneous pain behaviors in rat mild thermal injury (first-degree burn) model", "type": "in vivo", "conditions": "30 and 60 min after i.p. administration"}, "[2]": {"system": "rat complete Freund's adjuvant (CFA) model of hindpaw inflammation", "assay": "Thermal hyperalgesia (modified Hargreaves apparatus) in rat CFA model of hindpaw inflammation", "type": "in vivo", "conditions": "10 mg/kg i.p.", "description": "However, blockade of HCN channels with ZD7288 at 10 mg/kg, i.p., had no effect on thermal hyperalgesia (measured using a modified Hargreaves apparatus) in two different models of inflammatory pain: the rat carrageenan model of hindpaw inflammation, and the rat complete Freund's adjuvant (CFA) model of hindpaw inflammation. As shown supra, HCN blockade also had little effect on acute thermally evoked pain in the hot plate test."}, "normal rats": {"system": "normal rats", "assay": "55° C. hot plate test of acute thermally-evoked pain", "type": "in vivo, rat", "conditions": "10 mg/kg i.p.", "description": "A cutoff of 20 seconds of thermal surface exposure was employed to prevent tissue damage. Drug administration: Normal rats were administered ZD7288, 10 mg/kg, or an equivalent volume of saline, i.p. at time 0. Behavioral assessments were performed at 45, 60 and 75 minutes after drug administration."}, "SNL rats": {"system": "SNL rats", "assay": "Tactile allodynia (von Frey) in SNL (Chung) neuropathic pain model", "type": "in vivo, rat", "description": "Preparation of SNL (spinal nerve ligation) model: All studies were conducted in keeping with the guidelines of the Institutional Animal Care Committees of the University of California, San Diego and RWJPRI. Male Harlan Sprague-Dawley rats, 100-150 g, were housed in cages with solid bottoms and sawdust bedding, with a 12/12 h reversed light cycle (lights on 2100-900), and allowed free access to food pellets and water. Animals were housed in groups of 2 after surgical interventions. A surgical neuropathy was created as follows, to create a model commonly referred to as the SNL, or spinal nerve ligation model, also commonly referred to as the Chung model. Under isoflurane/oxygen anesthesia, a dorsal midline incision was made from approximately L3-S2. Using a mixture of sharp and blunt dissection, the left L6/S1 posterior interarticular process was exposed and resected to permit adequate visualization of the L6 transverse process, which was gently removed. Careful teasing of the underlying fascia exposed the left L4 and L5 spinal nerves distal to their emergence from the intervertebral foramina. The nerves were gently separated, and the L5 and in some cases either the L4 (for in vitro electrophysiology recordings) or the L6 nerve firmly ligated with 6-0 silk suture material. The wound was then inspected for hemostasis and closed in two layers. Animals with thresholds greater than 4 g were considered unsuccessful preparations(Chaplan et al., (1994) Journal of Neuroscience Methods 53: 55-63).\nBehavioral assessment: Behavioral signs of allodynia were documented as follows. Briefly, rats were transferred to a testing cage with a wire mesh bottom and allowed to acclimate for 10-15 minutes. […] Lifting of the paw was recorded as a positive response and the next lightest filament chosen for the next measurement. […]"}},
  "note": "“Also recorded” adds a separate entry of the source.",
  "data": [
    {"smiles": "CCN(c1ccccc1)c1cc(=NC)n(C)c(C)n1.Cl", "note": "[ZD7288]", "values": [
      {"measurement": "suppression of spontaneous pain behaviors", "setting": "[1]", "value": "near complete suppression"},
      {"measurement": "effect on thermal hyperalgesia", "setting": "[2]", "value": "no effect"},
      {"measurement": "effect on acute thermally-evoked pain", "setting": "normal rats", "value": "minimal effect"},
      {"measurement": "hot plate latency, difference versus saline", "setting": "normal rats; 45 or 60 min", "value": "No statistically significant difference"},
      {"measurement": "hot plate latency, difference versus saline", "setting": "normal rats; 75 min", "value": "approximately 15%"},
      {"measurement": "efficacy of allodynia suppression (% MPE)", "setting": "SNL rats; i.p.", "value": "75.7+/−15.4%"},
      {"measurement": "suppression of tactile allodynia", "setting": "SNL rats; i.p. 1, 3, 10 mg/kg", "value": "blocked in a dose dependent manner; also recorded: suppressed the tactile allodynia"},
      {"measurement": "untoward behavioral effects / motor function", "setting": "SNL rats; i.p., up to 10 mg/kg", "value": "No untoward behavioral effects; also recorded: without overt adverse effects on behavior"}
    ]}
  ]
}
